Laboratory results as given in US4337199A, “Antibiotic β-lactam compounds, production thereof, and their use as antimicrobial agent” (Sanraku-Ocean Co., Ltd., priority 1978, dated 1982).
Values after ≈ are worked out from the molar mass of the structure shown.

Key:
Test in all cases: minimum inhibitory concentration, agar dilution assay
Format in all cases: cell-based
[1] = system: Staphylococcus aureus Smith; settings: agar dilution, 35° C., 20 hours, read-out: minimum inhibitory concentration
Method: (§1) The antibiotic activities shown in Tables I-1 to I-8 above were determined in the following manner.
(§2) The minimum inhibitory concentrations of the compounds of formula (I-a-1) or (I-b-1) in Tables I-1 to I-7 and the known compounds in Table I-8 on the various microorganisms shown in the above tables were measured by an agar dilution assay method using a brain heart infusion agar medium "Difco" (a product of Difco Laboratories Inc.)
(§3) A sample of the test compound was dissolved in sterile distilled water and diluted to prepare a two-fold dilution series of the compound solution. In a petri plate of 9 cm diameter, 1 ml of the compound solution was added to 9 ml of molten sterile heart infusion agar medium (Difco Laboratories Inc.) at about 60° C. to prepare the compound-containing agar plate. An overnight culture of each test organism indicated in the above table which was prepared by stationary cultivation in Trypto-Soy broth (Eiken Chemi. Co., Ltd.) at 35° C. for 18 to 20 hours, was diluted with the Trypto-Soy broth to give approximately 10^8 cells/ml and the diluted inoculum was inoculated onto the compound-containing agar plates. After cultivating the plates at 35° C. for 20 hours, the growth of the organism was observed. The minimum concentration of the compound at which no growth of the microorganism was noted was determined, and defined as the minimum inhibitory concentration of the test compound.

Proteus mirabilis P6 = settings: P6, agar dilution, 35° C., 20 hours, read-out: minimum inhibitory concentration
Method: as §1, §2, §3

Serratia marcescens T55 = settings: T55, agar dilution, 35° C., 20 hours, read-out: minimum inhibitory concentration
Method: as §1, §2, §3

[2] = system: Staphylococcus aureus FDA 209P; settings: FDA209P, agar dilution, 35° C., 20 hours, read-out: minimum inhibitory concentration
Method: as §1, §2, §3

[3] = system: Staphylococcus aureus Russell; settings: agar dilution, 35° C., 20 hours, read-out: minimum inhibitory concentration
Method: as §1, §2, §3

Proteus rettgeri P7 = settings: Providencia rettgeri, P7; agar dilution, 35° C., 20 hours; read-out: minimum inhibitory concentration
Method: as §1, §2, §3

Escherichia coli RGN 823 = settings: RGN823, agar dilution, 35° C., 20 hours, read-out: minimum inhibitory concentration
Method: as §1, §2, §3

[4] = system: Bacillus subtilis ATCC 6633; settings: ATCC6633, agar dilution, 35° C., 20 hours, read-out: minimum inhibitory concentration
Method: as §1, §2, §3

[5] = system: Pseudomonas aeruginosa NCTC10490; settings: NCTC10490, agar dilution, 35° C., 20 hours, read-out: minimum inhibitory concentration
Method: as §1, §2, §3

[6] = system: Enterobacter aerogenes E19; settings: Klebsiella aerogenes, E19; agar dilution, 35° C., 20 hours; read-out: minimum inhibitory concentration
Method: as §1, §2, §3

[7] = system: Staphylococcus epidermidis; settings: agar dilution, 35° C., 20 hours, read-out: minimum inhibitory concentration
Method: as §1, §2, §3

Providencia sp. P8 = settings: SP.P8, agar dilution, 35° C., 20 hours, read-out: minimum inhibitory concentration
Method: as §1, §2, §3

Proteus sp. P22 = settings: agar dilution, 35° C., 20 hours; read-out: minimum inhibitory concentration
Method: as §1, §2, §3

Serratia marcescens S18 = settings: S18, agar dilution, 35° C., 20 hours, read-out: minimum inhibitory concentration
Method: as §1, §2, §3

Sarcina lutea = settings: Micrococcus luteus; agar dilution, 35° C., 20 hours; read-out: minimum inhibitory concentration
Method: as §1, §2, §3

Proteus vulgaris GN76 = settings: GN76, agar dilution, 35° C., 20 hours, read-out: minimum inhibitory concentration
Method: as §1, §2, §3

[8] = system: Pseudomonas aeruginosa IFO3445; settings: IFO3445, agar dilution, 35° C., 20 hours, read-out: minimum inhibitory concentration
Method: as §1, §2, §3

[9] = system: Citrobacter freundii GN 346; settings: GN346, agar dilution, 35° C., 20 hours, read-out: minimum inhibitory concentration
Method: as §1, §2, §3

Enterobacter sp. E8 = settings: SP.E8, agar dilution, 35° C., 20 hours, read-out: minimum inhibitory concentration
Method: as §1, §2, §3

Escherichia coli K-12 = settings: K12, agar dilution, 35° C., 20 hours, read-out: minimum inhibitory concentration
Method: as §1, §2, §3

[10] = system: Klebsiella pneumoniae K-13; settings: K13, agar dilution, 35° C., 20 hours, read-out: minimum inhibitory concentration
Method: as §1, §2, §3

Enterobacter cloacae 45 = settings: Enterobacter cloacae, 45; agar dilution, 35° C., 20 hours; read-out: minimum inhibitory concentration
Method: as §1, §2, §3

[11] = system: Comamonas terrigena B-996; settings: B996, agar dilution, 35° C., 20 hours, read-out: minimum inhibitory concentration
Method: as §1, §2, §3

Alcaligenes faecalis A 1 = settings: A1, agar dilution, 35° C., 20 hours, read-out: minimum inhibitory concentration
Method: as §1, §2, §3

MIC [1] [µg/mL]	MIC (Proteus mirabilis P6) [µg/mL]	MIC (Serratia marcescens T55) [µg/mL]	MIC [2] [µg/mL]	MIC [3] [µg/mL]	MIC (Proteus rettgeri P7) [µg/mL]	MIC (Escherichia coli RGN 823) [µg/mL]	MIC [4] [µg/mL]	MIC [5] [µg/mL]	MIC [6] [µg/mL]	MIC [7] [µg/mL]	MIC (Providencia sp. P8) [µg/mL]	MIC (Proteus sp. P22) [µg/mL]	MIC (Serratia marcescens S18) [µg/mL]	MIC (Sarcina lutea) [µg/mL]	MIC (Proteus vulgaris GN76) [µg/mL]	MIC [8] [µg/mL]	MIC [9] [µg/mL]	MIC (Enterobacter sp. E8) [µg/mL]	MIC (Escherichia coli K-12) [µg/mL]	SMILES	also measured
0.2 (≈ 0.653 µM)	6.25 (≈ 20.4 µM)	100 (≈ 326 µM)	0.1 (≈ 0.326 µM)	0.2 (≈ 0.653 µM)	6.25 (≈ 20.4 µM)	25 (≈ 81.6 µM)	0.2 (≈ 0.653 µM)	1.56 (≈ 5.09 µM)	50 (≈ 163 µM)	0.2 (≈ 0.653 µM)	1.56 (≈ 5.09 µM)			0.1 (≈ 0.326 µM)			100 (≈ 326 µM)	0.78 (≈ 2.55 µM)	1.56 (≈ 5.09 µM)	CC(O)[C@H]1C(=O)N2C(C(=O)O)=C(Sc3ccncc3)C[C@H]12 (stereo partly drawn) [Example 59, 5,6-trans-3-(4-Pyridylthio)-6-(1-hydroxyethyl)-7-oxo-1-azabicyclo[3.2.0]hept-2-ene-2-carboxylic acid]	MIC (Enterobacter cloacae 45): 50 µg/mL (≈ 163 µM); MIC (Alcaligenes faecalis A 1): 0.025 µg/mL (≈ 0.0816 µM)
		25 (≈ 86.1 µM)			6.25 (≈ 21.5 µM)			25 (≈ 86.1 µM)			1.56 (≈ 5.37 µM)	6.25 (≈ 21.5 µM)	12.5 (≈ 43.1 µM)		12.5 (≈ 43.1 µM)	12.5 (≈ 43.1 µM)				CCC1C(=O)N2C(C(=O)O)=C(Sc3ccccn3)CC12 (centres unmarked) [Example 65, 3-(2-Pyridylthio)-6-ethyl-7-oxo-1-azabicyclo-[3.2.0]hept-2-ene-2-carboxylicacid]	

Continued, molecule first:

SMILES	MIC [1] [µg/mL]	MIC (Proteus mirabilis P6) [µg/mL]	MIC (Serratia marcescens T55) [µg/mL]	MIC [2] [µg/mL]	MIC [3] [µg/mL]	MIC (Proteus rettgeri P7) [µg/mL]	MIC (Escherichia coli RGN 823) [µg/mL]	MIC [4] [µg/mL]	MIC [5] [µg/mL]	MIC [6] [µg/mL]	MIC [7] [µg/mL]	MIC (Providencia sp. P8) [µg/mL]	MIC (Proteus sp. P22) [µg/mL]	MIC (Serratia marcescens S18) [µg/mL]	MIC (Sarcina lutea) [µg/mL]	MIC (Proteus vulgaris GN76) [µg/mL]	MIC [8] [µg/mL]	MIC [9] [µg/mL]	MIC (Enterobacter sp. E8) [µg/mL]	MIC (Escherichia coli K-12) [µg/mL]	also measured
CC(O)[C@H]1C(=O)N2C(C(=O)O)=C(SC3CCCCC3)C[C@H]12 (some centres unmarked)	0.39 (≈ 1.25 µM)	100 (≈ 321 µM)	> 100	0.05 (≈ 0.161 µM)	0.2 (≈ 0.642 µM)	> 100	> 100	6.25 (≈ 20.1 µM)	25 (≈ 80.3 µM)	> 100	0.39 (≈ 1.25 µM)	> 100	> 100	> 100	0.05 (≈ 0.161 µM)	> 100	> 100	> 100	> 100	> 100	MIC [10]: > 100 µg/mL; MIC (Enterobacter cloacae 45): > 100 µg/mL; MIC [11]: 0.05 µg/mL (≈ 0.161 µM); MIC (Alcaligenes faecalis A 1): 25 µg/mL (≈ 80.3 µM)
CC(O)C1C(=O)N2C(C(=O)O)=C(SC3CCCCC3)CC12 (centres unmarked)	0.05 (≈ 0.161 µM)	6.25 (≈ 20.1 µM)	> 100	0.013 (≈ 0.0417 µM)	0.013 (≈ 0.0417 µM)	100 (≈ 321 µM)	100 (≈ 321 µM)	0.013 (≈ 0.0417 µM)	50 (≈ 161 µM)	50 (≈ 161 µM)	0.05 (≈ 0.161 µM)	25 (≈ 80.3 µM)	> 100	> 100	< 0.007	> 100	> 100	100 (≈ 321 µM)	12.5 (≈ 40.1 µM)	12.5 (≈ 40.1 µM)	MIC [10]: > 100 µg/mL; MIC (Enterobacter cloacae 45): 50 µg/mL (≈ 161 µM); MIC [11]: < 0.007 µg/mL; MIC (Alcaligenes faecalis A 1): 1.56 µg/mL (≈ 5.01 µM)
CC(C)C1C(=O)N2C(C(=O)O)=C(Sc3ccccc3)CC12 (centres unmarked)	0.2 (≈ 0.659 µM)	> 100	> 100	0.013 (≈ 0.0429 µM)	0.025 (≈ 0.0824 µM)	100 (≈ 330 µM)	50 (≈ 165 µM)	0.1 (≈ 0.33 µM)	6.25 (≈ 20.6 µM)	> 100	0.025 (≈ 0.0824 µM)	25 (≈ 82.4 µM)	100 (≈ 330 µM)	> 100	0.013 (≈ 0.0429 µM)	> 100	25 (≈ 82.4 µM)	> 100	> 100	50 (≈ 165 µM)	MIC [10]: > 100 µg/mL; MIC (Enterobacter cloacae 45): > 100 µg/mL; MIC [11]: 0.007 µg/mL (≈ 0.0231 µM); MIC (Alcaligenes faecalis A 1): 6.25 µg/mL (≈ 20.6 µM)
